Results taken from patent publication US20040029823A1, “Antisense oligonucleotide compositions and methods for the modulation of JNK proteins” (priority 1997, published 2004).
Strand notation (5' to 3'): a small letter for the sugar, then the base; units joined by * are phosphorothioate-linked, units joined directly phosphodiester-linked; [ ] holds rarer units or linkages, { } end groups; capitals alone tell only the bases. e = 2'-O-(2-methoxyethyl) (MOE); [5mC] = 5-methylcytosine; d = 2'-deoxy (DNA)

Assays:
JNK2 mRNA = assay: Northern assay of JNK2 mRNA expression in A549 cells; assay type: cell-based, human; conditions: for % INHIBITION: JNK2 mRNA time course
Protocol: In order to evaluate the activity of potential JNK-modulating oligonucleotides, human lung carcinoma cell line A549 (American Type Culture Collection, Rockville, Md. No. ATCC CCL-185) cells or other cell lines as indicated in the Examples, were grown and treated with oligonucleotides or control solutions as detailed below. After harvesting, cellular extracts were prepared and examined for specific JNK mRNA levels or JNK protein levels (i.e., Northern or Western assays, respectively). In all cases, “% expression” refers to the amount of JNK-specific signal in an oligonucleotide-treated cell relative to an untreated cell (or a cell treated with a control solution that lacks oligonucleotide), and “% inhibition” is calculated as
100%−% Expression =% Inhibition.
Northern Assays: The mRNA expression of each JNK protein was determined by using a nucleic acid probe specifically hybridizable thereto. Nucleic acid probes specific for JNK1, JNK2 and JNK3 are described in Examples 3, 4 and 5, respectively. The probes were radiolabelled by means well known in the art (see, e.g., Short Protocols in Molecular Biology, 2nd Ed., Ausubel et al., Eds., John Wiley & Sons, New York, 1992, pages 3-11 to 2-3-44 and 4-17 to 4-18; Ruth, Chapter 6 In: Methods in Molecular Biology, Vol. 26: Protocols for Oligonucleotide Conjugates, Agrawal, ed., Humana Press Inc., Totowa, N.J., 1994, pages 167-185; and Chapter 10 In: Molecular Cloning: A Laboratory Manual, 2nd Ed., Sambrook et al., Eds., pages 10.1-10.70). The blots were stripped and reprobed with a ^32P-labeled glyceraldehyde 3-phosphate dehydrogenase (G3PDH) probe (Clontech Laboratories, Inc., Palo Alto, Calif.) in order to confirm equal loading of RNA and to allow the levels of JNK transcripts to be normalized with regard to the G3PDH signals.
A549 cells were grown in T-75 flasks until 80-90% confluent. At this time, the cells were washed twice with 10 mL of media (DMEM), followed by the addition of 5 mL of DMEM containing 20 μg/mL of LIPOFECTIN™ (i.e., 1:1 (w/w) DOTMA/DOPE, Life Technologies, Gaithersburg, Md.; DOTMA=N-[1-(2,3-dioleyoxy)propyl]-N,N,N-trimethylammonium chloride; DOPE=dioleoyl phosphatidylethanolamine). The oligonucleotides were added from a 10 μM stock solution to a final concentration of 400 nM, and the two solutions were mixed by swirling the flasks. As a control, cells were treated with LIPOFECTIN™ without oligonucleotide under the same conditions and for the same times as the oligonucleotide-treated samples. After 4 hours at 37° C., the medium was replaced with fresh DMEM containing 10% serum. The cells were allowed to recover for 18 hours. Total cellular RNA was then extracted in guanidinium, subject to gel electrophoresis and transferred to a filter according to techniques known in the art (see, e.g., Chapter 7 In: Molecular Cloning: A Laboratory Manual, 2nd Ed., Sambrook et al., Eds., pages 7.1-7.87, and Short Protocols in Molecular Biology, 2nd Ed., Ausubel et al., Eds., John Wiley & Sons, New York, 1992, pages 2-24 to 2-30 and 4-14 to 4-29). Filters were typically hybridized overnight to a probe specific for the particular JNK gene of interest in hybridization buffer (25 mM KPO4, pH 7.4; 5×SSC; 5× Denhardt's solution, 100 μg/ml Salmon sperm DNA and 50% formamide) (Alahari et al., Nucl. Acids Res., 1993, 21, 4079). This was followed by two washes with 1×SSC, 0.1% SDS and two washes with 0.25×SSC, 0.1% SDS. Hybridizing bands were visualized by exposure to X-OMAT AR film and quantitated using a PHOSPHORIMAGER™ essentially according to the manufacturer's instructions (Molecular Dynamics, Sunnyvale, Calif.)
B. JNK2-specific probes: In initial screenings of a set of oligonucleotides derived from the JNK2 sequence (Table 9) for biological activity, a cDNA clone of JNK2 (Kallunki et al., Genes & Development, 1994, 8, 2996) was radiolabeled and used as a JNK2-specific probe in Northern blots. […]

rat JNK2 mRNA = assay: Northern assay of rat JNK2 (p54a) mRNA in A10 aortic smooth muscle cells; assay type: cell-based; design: inhibition of rat JNK2 mRNA levels / % INHIBITION: concentration or dose not given beside the values; conditions: rat JNK2 (p54a) mRNA in A10 cells
Protocol: In order to study the role of JNK proteins in animal models, oligonucleotides targeted to the genes encoding JNK1, JNK2 and JNK3 of Rattus norvegicus were prepared. These oligonucleotides are 2′-methoxyethoxy, phosphodiester/2′-hydroxyl, phosphorothioate/2′-methoxyethoxy, phosphodiester “gapmers” in which every cytosine residue is 5-methylcytosine (m5c). These antisense compounds were synthesized according to the methods of the disclosure. Certain of these oligonucleotides are additionally specifically hybridizable to JNK genes from other species as indicated herein. The oligonucleotides described in this Example were tested for their ability to modulate rat JNK mRNA levels essentially according to the methods described in the preceding Examples, with the exceptions that the cell line used was rat A10 aortic smooth muscle cells (ATCC No. ATCC CRL-1476) and the probes used were specific for rat JNK1, JNK2 or JNK3 (see infra). A10 cells were grown and treated with oligonucleotides essentially as described by (Cioffi et al. Mol. Pharmacol., 1997, 51, 383).
These antisense compounds were tested for their ability to modulate levels of p54? (JNK1) and p54a (JNK2) mRNA in A10 cells via Northern assays. Due to the high degree of sequence identity between the human and rat genes, radiolabeled human JNK1 (Example 3) and JNK2 (Example 4) cDNAs functioned as specific probes for the rat homologs.
These antisense compounds were tested for their ability to modulate levels of p54a (JNK2) mRNA in A10 cells using the radiolabeled human JNK2 cDNA as a probe as described supra. Oligonucleotides showing levels of inhibition from ≧ about 60% to about 100% of rat JNK2 mRNA levels include ISIS Nos. 18254, 18255, 18257, 18258, 18259, 18260 and 18265 (SEQ ID NOS: 125, 126, 128, 129, 130, 131 and 136, respectively). These oligonucleotides are preferred embodiments of the invention for modulating rat JNK2 expression. […] These oligonucleotides are thus more preferred embodiments of the invention for modulating rat JNK2 expression. ISIS 18259 (SEQ ID NO: 130) was chosen for use in further studies (infra).

[1] = JNK2 mRNA dose response, 100 nM
[2] = JNK2 mRNA dose response, 200 nM
[3] = JNK2 mRNA dose response, 400 nM
[4] = JNK2 mRNA, chemically modified oligonucleotides, dose 100 nM
[5] = JNK2 mRNA, chemically modified oligonucleotides, dose 400 nM

12570 (antisense dG*dG*dG*dC*dA*dA*dG*dT*dC*dC*dA*dA*dG*dC*dA*dA*dG*dC*dA*dT) [compound 12570]
% EXPRESSION (JNK2 mRNA; JNK2 mRNA, A549 cells, 400 nM oligonucleotide, relative to LIPOFECTIN-only control): 24%

14318 (sense GACTTTGGCCTGGCCCGGAC; DNA, all phosphorothioate, methylation of C not given here) [compound 14318]
Normalized % Control (JNK2 mRNA; JNK2 mRNA dose response, 50 nM): 87.1% | Normalized % Control (JNK2 mRNA; [1]): 89.8% | Normalized % Control (JNK2 mRNA; [2]): 92.1% | Normalized % Control (JNK2 mRNA; [3]): 99.6%

14319 (GTGCGCGCGAGCCCGAAATC; DNA, all phosphorothioate, methylation of C not given here) [compound 14319]
Normalized % Control (JNK2 mRNA; JNK2 mRNA dose response, 50 nM): 90.4% | Normalized % Control (JNK2 mRNA; [1]): 93.7% | Normalized % Control (JNK2 mRNA; [2]): 110.2% | Normalized % Control (JNK2 mRNA; [3]): 100.0%

15352 (antisense eG*eT*e[5mC]*e[5mC]*eG*eG*eG*e[5mC]*e[5mC]*eA*eG*eG*e[5mC]*e[5mC]*eA*eA*eA*eG*eT*e[5mC]) [compound 15352]
Normalized % Control (JNK2 mRNA; [4]): 132.4% | Normalized % Control (JNK2 mRNA; [5]): 158.4%

15354 (antisense eGeTe[5mC]e[5mC]eG*dG*dG*dC*dC*dA*dG*dG*dC*dC*eAeAeAeGeTe[5mC]) [compound 15354]
Normalized % Control (JNK2 mRNA; [4]): 38.3% | Normalized % Control (JNK2 mRNA; [5]): 17.1% | inhibition of JNK2 mRNA expression (JNK2 mRNA; chemically modified derivatives of ISIS 12560, 400 nM (text to Table 12)): approximately 80%

15355 (antisense eG*eT*e[5mC]*e[5mC]*eG*eG*eG*e[5mC]*e[5mC]*eA*eG*dG*dC*dC*dA*dA*dA*dG*dT*dC) [compound 15355]
Normalized % Control (JNK2 mRNA; [4]): 61.3% | Normalized % Control (JNK2 mRNA; [5]): 29.1%

15356 (antisense dG*dT*dC*dC*dG*dG*dG*dC*dC*eA*eG*eG*e[5mC]*e[5mC]*eA*eA*eA*eG*eT*e[5mC]) [compound 15356]
Normalized % Control (JNK2 mRNA; [4]): 38.6% | Normalized % Control (JNK2 mRNA; [5]): 11.0%

15357 (antisense GTCCGGGCCAGGCCAAAGTC; wingmer: 5' deoxy phosphorothioate wing, 3' MOE phosphodiester wing, wing lengths not given here) [compound 15357]
Normalized % Control (JNK2 mRNA; [4]): 42.8% | Normalized % Control (JNK2 mRNA; [5]): 13.7%

15358 (antisense eGeTe[5mC]e[5mC]eGeGeGe[5mC]e[5mC]eAeG*dG*dC*dC*dA*dA*dA*dG*dT*e[5mC]) [compound 15358]
Normalized % Control (JNK2 mRNA; [4]): 47.4% | Normalized % Control (JNK2 mRNA; [5]): 29.4%

18254 (antisense eTe[5mC]eAeTeG*dA*dT*dG*dT*dA*dG*dT*dG*dT*d[5mC]*eAeTeAe[5mC]eA) [compound 18254]
% INHIBITION (rat JNK2 mRNA): 80% | % EXPRESSION (rat JNK2 mRNA; relative to LIPOFECTIN-only control): 20%

GTC-CGG-GCC-AGG-CCA-AAG-TC (GTCCGGGCCAGGCCAAAGTC; chemistry not given here) [ISIS 12560]
% INHIBITION (JNK2 mRNA; t=12 h): greater than or equal to 80% | % INHIBITION (JNK2 mRNA; t=48 h): greater than or equal to 60%
